Measured values: publication PMC5681660, “Reduced hepatitis B and D viral entry using clinically applied drugs as novel inhibitors of the bile acid transporter NTCP” (Scientific Reports, 2017)
Where a name gives a salt, the structure may show the parent alone. Read-outs that look alike come from different tables or passages of the source.

Key:
human NTCP [1] = target: T1, human NTCP (Homo sapiens, UniProt Q14973); assay: Screening taurocholate uptake assay (96-well, [14C]taurocholate, 10 µM drug)
T1 sequence (Q14973 1-349): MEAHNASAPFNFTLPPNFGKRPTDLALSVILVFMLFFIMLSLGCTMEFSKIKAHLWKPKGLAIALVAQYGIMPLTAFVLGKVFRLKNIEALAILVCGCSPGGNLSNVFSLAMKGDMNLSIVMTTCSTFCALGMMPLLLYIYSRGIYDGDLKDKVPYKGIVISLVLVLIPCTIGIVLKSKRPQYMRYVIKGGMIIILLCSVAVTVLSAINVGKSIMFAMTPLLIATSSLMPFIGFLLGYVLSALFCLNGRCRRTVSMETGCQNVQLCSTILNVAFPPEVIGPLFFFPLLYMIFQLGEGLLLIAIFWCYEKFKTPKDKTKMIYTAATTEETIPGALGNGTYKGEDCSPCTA

human NTCP [2] = target: T1, human NTCP; assay: Screening fluorescent competitive Myrcludex B-FITC binding assay (96-well, 10 µM drug)
[3] = Prestwick library screen, 10 µM drug, B-score of taurocholate uptake
[4] = combined ranking from functional and binding assay B-scores
[5] = Prestwick library screen, 10 µM drug, B-score of Myrcludex B-FITC binding
[6] = Prestwick library screen, taurocholate uptake, 10 µM drug
[7] = ranking score beside the functional and binding assay B-scores of the screen
[8] = Prestwick library screen, Myrcludex B-FITC binding, 10 µM drug
[9] = combined ranking from functional and binding screening assays
[10] = screen, 10 µM drug, taurocholate uptake
[11] = screen, 10 µM drug, Myrcludex B-FITC binding

Compound	B-score functional assay (human NTCP [1]; [3])	Ranking score (human NTCP [1]; [4])	B-score binding assay (human NTCP [2]; [5])	Ranking score (human NTCP [1]; [7])	B-score binding assay (human NTCP [2]; [8])	other results
Cl.c1cnc(N2CCN(Cc3ccc4c(c3)OCO4)CC2)nc1 [Piribedil hydrochloride]	0.676	974.49	0.754	–	–	–
CC(O)(P(=O)([O-])O)P(=O)([O-])O.[Na+].[Na+] [Etidronic acid, disodium salt]	–	–	–	776.081	0.806	B-score functional assay (human NTCP [1]; [6]): -0.023
C[N+]12CCC(CC1)C(OC(=O)C(O)(c1ccccc1)c1ccccc1)C2 (stereo not shown) [Clidinium bromide]	0.121	877.232	0.853	–	–	–
CCN(CCO)CCCC(C)Nc1ccnc2cc(Cl)ccc12 (stereo not shown) [Hydroxychloroquine sulfate]	–	–	–	775.907	0.139	B-score functional assay (human NTCP [1]; [6]): 0.168
CC(N)C12CC3CC(CC(C3)C1)C2 (stereo not shown) [Rimantadine Hydrochloride]	–	–	–	753.923	0.171	B-score functional assay (human NTCP [1]; [6]): 0.074
C=C[C@H]1CN2CC[C@H]1C[C@@H]2[C@@H](O)c1ccnc2ccc(OC)cc12.Cl.O [Quinidine hydrochloride monohydrate]	–	–	–	834.825	-0.002	–
CNC(=O)c1c(I)c(C(=O)NCC(=O)Nc2c(I)c(C(=O)O)c(I)c(C(=O)NCCO)c2I)c(I)c(N(C)C(C)=O)c1I [Ioxaglic acid]	–	–	–	769.829	2.105	B-score functional assay (human NTCP [1]; [6]): -0.19
Clc1cnccn1 [2-Chloropyrazine]	–	–	–	812.047	-0.068	B-score functional assay (human NTCP [1]; [6]): 1.648
CC/C(=C(\c1ccccc1)c1ccc(OCCN(C)C)cc1)c1ccccc1 [Tamoxifen citrate]	–	–	–	732.268	0.04	B-score functional assay (human NTCP [1]; [6]): 0.142
Cc1cc(-c2ccccc2)nnc1NCCN1CCOCC1 [Minaprine dihydrochloride]	–	–	–	814.509	-0.039	B-score functional assay (human NTCP [1]; [6]): 1.278
CCCCCCCN(CC)CCCC(O)c1ccc(NS(C)(=O)=O)cc1.CCCCCCCN(CC)CCCC(O)c1ccc(NS(C)(=O)=O)cc1.O=C(O)/C=C/C(=O)O (stereo not shown) [Ibutilide fumarate]	–	–	–	835.048	0.907	B-score functional assay (human NTCP [1]; [6]): 0.035
C/C(=C(/CCO)SSCC1CCCO1)N(C=O)Cc1cnc(C)nc1N.Cl (stereo not shown) [Fursultiamine Hydrochloride]	–	–	–	–	–	B-score functional assay (human NTCP [1]): 1.116; Ranking score (human NTCP [1]): 897.109; B-score binding assay (human NTCP [2]): 0.087
CCN1CC(CCN2CCOCC2)C(c2ccccc2)(c2ccccc2)C1=O.Cl (stereo not shown) [Doxapram hydrochloride]	–	–	–	–	–	Ranking score (human NTCP [1]; [9]): 446.058; B-score functional assay (human NTCP [1]; [10]): 0.629; B-score binding assay (human NTCP [2]; [11]): -1.194
C[C@H]1C[C@@H]2[C@H]([C@@H](O)C[C@@]3(C)[C@H]2CC[C@]3(O)C(=O)CO)[C@@]2(C)C=CC(=O)C=C12 [Methylprednisolone, 6-alpha]	0.477	941.018	0.779	–	–	–
COC(=O)CCc1ccc(OCC(O)CNC(C)C)cc1 (stereo not shown) [Esmolol hydrochloride]	0.736	1025.92	1.099	–	–	–
Cc1cn[nH]c1 [Fomepizole]	–	–	–	795.707	-0.028	B-score functional assay (human NTCP [1]; [6]): 0.928
CCN[C@@H](C)Cc1cccc(C(F)(F)F)c1 [Dexfenfluramine hydrochloride]	–	–	–	–	–	Ranking score (human NTCP [1]; [9]): 401.597; B-score functional assay (human NTCP [1]; [10]): -0.697; B-score binding assay (human NTCP [2]; [11]): -0.169
C#C[C@]1(O)CC[C@H]2[C@@H]3[C@H](C)CC4=C(CCC(=O)C4)[C@H]3CC[C@@]21C [Tibolone]	0.613	930.923	0.535	–	–	–
CN1C(C)(C)CCCC1(C)C [Pempidine tartrate]	1.102	1065.26	1.02	–	–	–

Compound	B-score functional assay (human NTCP [1]; [3])	Ranking score (human NTCP [1]; [4])	B-score binding assay (human NTCP [2]; [5])	Ranking score (human NTCP [1]; [7])	B-score binding assay (human NTCP [2]; [8])	other results
CO[C@@H]1[C@@H](OC(N)=O)[C@@H](O)[C@H](Oc2ccc3c([O-])c(NC(=O)c4ccc(O)c(CC=C(C)C)c4)c(=O)oc3c2C)OC1(C)C.[Na+] [Novobiocin sodium salt]	1.027	942.881	0.269	–	–	–
CC(C(=O)O)c1ccc2c(c1)Cc1cccnc1O2 (stereo not shown) [Pranoprofen]	–	–	–	817.912	1.204	B-score functional assay (human NTCP [1]; [6]): -0.016
CCCC(=O)Nc1ccc(OCC(O)CNC(C)C)c(C(C)=O)c1 (stereo not shown) [Acebutolol hydrochloride]	1.681	904.34	0.049	–	–	–
COc1cc(NC(C)CCCN)c2ncccc2c1 (stereo not shown) [Primaquine diphosphate]	4.393	1046.51	0.361	–	–	–
COc1cc(C(=O)NC2CCCNC2)cc(OC)c1OC (stereo not shown) [Troxipide]	0.286	1019.78	2.726	–	–	–
COc1cccc(C2(O)CCCCC2CN(C)C)c1.Cl (stereo not shown) [Tramadol hydrochloride]	–	–	–	–	–	Ranking score (human NTCP [1]; [9]): 410.66; B-score functional assay (human NTCP [1]; [10]): 0.906; B-score binding assay (human NTCP [2]; [11]): -1.463
NC[C@H]1O[C@H](O[C@H]2[C@H](O[C@@H]3O[C@H](CO)[C@@H](O)[C@H]3O)[C@@H](O)[C@H](N)C[C@@H]2N)[C@H](N)[C@@H](O)[C@@H]1O.O=S(=O)(O)O [Ribostamycin sulfate salt]	0.797	1035.72	1.097	–	–	–
COc1ccccc1N1CCN(CCCCNC(=O)c2ccc3ccccc3c2)CC1.Cl.Cl [DO 897/99]	–	–	–	–	–	Ranking score (human NTCP [1]; [9]): 447.929; B-score functional assay (human NTCP [1]; [10]): -0.485; B-score binding assay (human NTCP [2]; [11]): -0.125
Cn1nnc2c(C(N)=O)ncn2c1=O [Temozolomide]	0.533	906.245	0.415	–	–	–
C=CCOc1ccccc1OCC(O)CNC(C)C (stereo not shown) [Oxprenolol hydrochloride]	–	–	–	–	–	Ranking score (human NTCP [1]; [9]): 434.185; B-score functional assay (human NTCP [1]; [10]): -0.061; B-score binding assay (human NTCP [2]; [11]): -0.666
CC(C(=O)[O-])c1cccc(Oc2ccccc2)c1.CC(C(=O)[O-])c1cccc(Oc2ccccc2)c1.O.O.[Ca+2] (stereo not shown) [Fenoprofen calcium salt dihydrate]	–	–	–	–	–	Ranking score (human NTCP [1]; [9]): 452.388; B-score functional assay (human NTCP [1]; [10]): -0.759; B-score binding assay (human NTCP [2]; [11]): 0.022
COC(=O)[C@H](c1ccccc1Cl)N1CCc2sccc2C1 [Clopidogrel]	–	–	–	–	–	Ranking score (human NTCP [1]; [9]): 419.199; B-score functional assay (human NTCP [1]; [10]): 0.915; B-score binding assay (human NTCP [2]; [11]): -1.412
CN(C)CCOC(C)(c1ccccc1)c1ccccn1 (stereo not shown) [Doxylamine succinate]	–	–	–	–	–	Ranking score (human NTCP [1]; [9]): 393.435; B-score functional assay (human NTCP [1]; [10]): 0.231; B-score binding assay (human NTCP [2]; [11]): -1.318
O=C(NC(Cc1cc(=O)[nH]c2ccccc12)C(=O)O)c1ccc(Cl)cc1 (stereo not shown) [Rebamipide]	0.089	955.076	2.49	–	–	–
O=c1[nH]c(=O)n([C@H]2C[C@H](O)[C@@H](CO)O2)cc1F [Floxuridine]	–	–	–	772.114	-0.009	B-score functional assay (human NTCP [1]; [6]): 0.659
COc1ccc2[nH]c([S+]([O-])Cc3ncc(C)c(OC)c3C)nc2c1 (stereo not shown) [Omeprazole]	–	–	–	–	–	Ranking score (human NTCP [1]; [9]): 423.789; B-score functional assay (human NTCP [1]; [10]): -0.074; B-score binding assay (human NTCP [2]; [11]): -0.678
CCN(CC)CCCC(C)Nc1ccnc2cc(Cl)ccc12 (stereo not shown) [Chloroquine diphosphate]	–	–	–	–	–	B-score functional assay (human NTCP [1]): 0.222; Ranking score (human NTCP [1]): 726.833; B-score binding assay (human NTCP [2]): 0.002
Tyloxapol	–	–	–	–	–	B-score functional assay (human NTCP [1]; [10]): -1.163; B-score binding assay (human NTCP [2]; [11]): 0.59
